Data on one compound can be found in article PMC4171615, “Discovery of selective inhibitors of Glutaminase-2, which inhibit mTORC1, activate autophagy and inhibit proliferation in cancer cells” (Oncotarget, 2014).

In general, IC50 refers to the concentration at which inhibition is half-maximal.

The test addresses T1, KGA_F318Y/F322S (Homo sapiens, UniProt O94925, F318Y/F322S).
T1 construct: a KGA cDNA fragment of 1644 bp (residues Leu123-Leu669); His-tag (N); made in house; host or cells: Escherichia coli
T1 sequence (O94925 123-669 F318Y/F322S): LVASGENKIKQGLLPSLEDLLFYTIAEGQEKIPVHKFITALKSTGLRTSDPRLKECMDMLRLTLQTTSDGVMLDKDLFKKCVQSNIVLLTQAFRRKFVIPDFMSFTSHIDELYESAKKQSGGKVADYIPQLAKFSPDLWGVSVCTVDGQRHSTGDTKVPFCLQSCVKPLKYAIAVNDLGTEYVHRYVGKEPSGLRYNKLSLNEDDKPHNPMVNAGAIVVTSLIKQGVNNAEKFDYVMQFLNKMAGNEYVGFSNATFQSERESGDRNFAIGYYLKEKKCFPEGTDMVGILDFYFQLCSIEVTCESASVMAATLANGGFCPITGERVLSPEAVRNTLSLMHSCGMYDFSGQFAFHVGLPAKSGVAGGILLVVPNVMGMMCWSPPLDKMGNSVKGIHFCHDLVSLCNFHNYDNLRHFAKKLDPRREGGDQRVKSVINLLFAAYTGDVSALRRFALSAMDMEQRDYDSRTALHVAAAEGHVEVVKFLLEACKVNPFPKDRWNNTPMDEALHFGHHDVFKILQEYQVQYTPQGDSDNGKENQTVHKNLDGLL
Kind of test: Glutaminase activity assay, KGA mutant F318Y/F322S. In kind it is biochemical. The protocol: Human glutaminase activity was measured using a two-step assay as described previously. A microtiter assay format was used to facilitate the collection of multiple data points. […] Samples were incubated at 25°C for 10 min and then 10 μl of 200 mM glutamine were added to the reaction mix. After adding glutamine, the reactions were incubated at 37°C for 60 min and then quenched by the addition of 10 μl of 0.6 M HCl. Subsequently, 100 μl of a second reaction mixture (3.7 units of purified bovine liver glutamate dehydrogenase, 160 mM Tris/acetate [pH 9.4], 400 mM hydrazine, 5 mM ADP and 2 mM NAD^+) was added to the stopped first reaction mixture and incubated for 30 min at 25°C. The absorbance at 340 nm was measured using a Wallac Victor2V plate reader (PerkinElmer), fitted with a 340 nm excitation filter. Sample absorbance was measured against a blank, containing no human glutaminase.
Site-directed mutagenesis was performed on the pET28a(+)-GAB or pET28a(+)-KGA plasmids using PfuUltra II Fusion HS DNA polymerase (Agilent Technologies) to create the GAB and KGA mutants. The deep view program (Version 3.7) of the Swiss-MODEL server was used to generate the three dimensional structure of homologous modeled GAB. Using the integrated sequence alignment tools and structural superimposition algorithms, the target sequence was mapped on the modeling templates.

The compound `CCCCCCCCCCCCCC(CC1=CC(=O)C=C(OC)C1=O)OC(C)=O` (stereo not shown) [AV-1] returned an IC50 of 2400 nM. In other words, the single-digit micromolar range.
